Results reported in PMC6152667, “Synthesis and Evaluation of Antimicrobial Activity of [R4W4K]-Levofloxacin and [R4W4K]-Levofloxacin-Q Conjugates” (Molecules : A Journal of Synthetic Chemistry and Natural …, 2017).
Values after ≈ are worked out from the molar mass of the structure shown. Like-named read-outs stand apart in the source and are kept apart here. Each block holds one compound with its values, some of them ahead of it. Side chains are listed from the residue outwards. Peptide text beside a SMILES is read from it. * marks the point of attachment. Levofloxacinoyl = C[C@H]1COc2c(N3CCN(C)CC3)c(F)cc3c(=O)c(C(=O)*)cn1c23; X1 = C[C@H]1COc2c(F)c(F)cc3c(=O)c(C(=O)*)cn1c23; βAla = NCCC(=O)O

Key:
[1] = tested on: Klebsiella pneumoniae (Clinical strain (levofloxacin-susceptible)); assay: microbe, parasite or virus in culture; assay type: cell-based; conditions: for MIC: Klebsiella pneumoniae
Method: (§1) The antibacterial activities of synthesized peptides were evaluated against two bacterial strains and compared to a control antibiotic and [R4W4]. Gram-negative bacteria: Klebsiella pneumoniae (Clinical strain (levofloxacin-susceptible)) and the Gram-positive bacteria: Methicillin-Resistant Staphylococcus aureus (Los Angeles County (LAC) clone) were employed for the determination of antimicrobial activities of peptides. MRSA and Klebsiella pneumoniae were inoculated into 5 mL of Mueller Hinton […] (MH) at 37 °C and shaken in an orbital shaker at 175 rpm overnight. The cultured suspension was diluted in 5 mL normal saline until it achieved 0.5 McFarland (1.5 × 10^8 bacterial cell density) turbidity. An amount of 40 μL of the McFarland solution was added to […] of MH media to make 1/150 dilution. Most peptides were dissolved in distilled water (except some of them that were dissolved in 50 mM NH4HCO3 to improve the solubility) to make 256 μg/mL solutions. Minimal inhibitory concentrations (MICs) were determined using the broth microdilution method. Briefly, 200 μL of all tested peptides and controls was added in the first column of the 96-well plate. Then, by adding 100 μL of media to the other wells and performing a 2-fold dilution in each well, serial dilution of the compound was prepared. After a series of 2-fold dilutions, 100 μL of bacterial solution was added to all wells, and then the microliter plates were incubated statically at 37 °C overnight. MICs were determined as the minimal concentration at which no visible bacterial growth was present. All experiments were conducted in triplicate.

[2] = tested on: Methicillin-Resistant Staphylococcus aureus (Los Angeles County (LAC) clone); assay: microbe, parasite or virus in culture; assay type: cell-based; conditions: for MIC: Staphylococcus aureus, MRSA, read-out: MIC, Methicillin-Resistant Staphylococcus aureus (MRSA)
Method: as §1

[3] = tested on: Methicillin-resistant Staphylococcus aureus (MRSA); set-up: method as in PMID 25157458; conditions: previously reported; cited from earlier work
Text: The development of a new class of antibiotics to fight bacterial resistance is a time-consuming effort associated with high-cost and commercial risks. Thus, modification, conjugation or combination of existing antibiotics to enhance their efficacy is a suitable strategy. […] Herein, we hypothesized that conjugation or combination of the amphiphilic cyclic peptide [R4W4] with levoflox ... || Antimicrobial peptides (AMPs) are vital parts of the innate immune system, which usually act at the level of the plasma membrane of the bacterial cell. AMPs have a unique mode of action, which is mostly related to their cationic and amphipathic properties, making them capable of interacting with microbial membranes. Accordingly, AMPs have attracted increasing attention as potential candidates against resistant bacteria. […] T ...

Escherichia coli = tested on: Escherichia coli; set-up: method as in PMID 25157458; conditions: previously reported; cited from earlier work
[4] = broth microdilution, Mueller Hinton media, 2-fold dilutions, 37 °C overnight, no visible growth, triplicate, N/A = not active
[5] = Clinical strain (levofloxacin-susceptible)
[6] = broth microdilution, Mueller Hinton media, 2-fold dilutions, 37 °C overnight, no visible growth, triplicate, N/A = not active, listed as levofloxacin-Q

SMILES: C[C@H]1COc2c(N3CCN(C)CC3)c(F)cc3c(=O)c(C(=O)NCCC(=O)NCCCC[C@@H]4NC(=O)[C@H](Cc5c[nH]c6ccccc56)NC(=O)[C@H](Cc5c[nH]c6ccccc56)NC(=O)[C@H](Cc5c[nH]c6ccccc56)NC(=O)[C@H](Cc5c[nH]c6ccccc56)NC(=O)[C@H](CCCNC(=N)N)NC(=O)[C@H](CCCNC(=N)N)NC(=O)[C@H](CCCNC(=N)N)NC(=O)[C@H](CCCNC(=N)N)NC4=O)cn1c23 [Conjugate cyclic [R4W4]-levofloxacin (8)] (cyclo(K([βAla-Levofloxacinoyl])RRRRWWWW))
MIC, Methicillin-Resistant Staphylococcus aureus (MRSA) [2, 4]: 32 µg/mL (≈ 16.7 µM)

SMILES: C[C@H]1COc2c(N3CCN(C)CC3)c(F)cc3c(=O)c(C(=O)NCCC(=O)NCCCC[C@H](N)C(=O)N[C@@H](CCCNC(=N)N)C(=O)N[C@@H](CCCNC(=N)N)C(=O)N[C@@H](CCCNC(=N)N)C(=O)N[C@@H](CCCNC(=N)N)C(=O)N[C@@H](Cc4c[nH]c5ccccc45)C(=O)N[C@@H](Cc4c[nH]c5ccccc45)C(=O)N[C@@H](Cc4c[nH]c5ccccc45)C(=O)N[C@@H](Cc4c[nH]c5ccccc45)C(=O)O)cn1c23 [Conjugate linear (R4W4)-levofloxacin (6)] (H-K([βAla-Levofloxacinoyl])RRRRWWWW-OH)
MIC, Klebsiella pneumoniae [1, 5]: >128 µg/mL | MIC, Methicillin-Resistant Staphylococcus aureus (MRSA) [2, 4]: 64 µg/mL (≈ 33.2 µM)

SMILES: C[C@H]1COc2c(N3CCN(C)CC3)c(F)cc3c(=O)c(C(=O)O)cn1c23 [Levofloxacin (1), Levofloxacin]
MIC [1, 4]: 4 µg/mL (≈ 11.1 µM) | MIC, Klebsiella pneumoniae [1, 4]: 4 µg/mL (≈ 11.1 µM) | MIC [2, 4]: 2 µg/mL (≈ 5.53 µM) | MIC, Methicillin-Resistant Staphylococcus aureus (MRSA) [2, 4]: 2 µg/mL (≈ 5.53 µM)

SMILES: CN[C@H](CC(C)C)C(=O)N[C@H]1C(=O)N[C@@H](CC(N)=O)C(=O)N[C@H]2C(=O)N[C@H]3C(=O)N[C@H](C(=O)N[C@H](C(=O)O)c4cc(O)cc(O)c4-c4cc3ccc4O)[C@H](O)c3ccc(c(Cl)c3)Oc3cc2cc(c3O[C@@H]2O[C@H](CO)[C@@H](O)[C@H](O)[C@H]2O[C@H]2C[C@](C)(N)[C@H](O)[C@H](C)O2)Oc2ccc(cc2Cl)[C@H]1O [Vancomycin]
MIC [2]: 1 µg/mL (≈ 0.69 µM)

SMILES: CN(C)[C@@H]1C(O)=C(C(N)=O)C(=O)[C@@]2(O)C(O)=C3C(=O)c4c(O)cccc4[C@@](C)(O)[C@H]3C[C@@H]12 [tetracycline]
MIC against MRSA [3]: 0.5 µg/mL | MIC against Escherichia coli (Escherichia coli): 2 µg/mL (≈ 4.5 µM)

More lines, main results first:

MIC, Klebsiella pneumoniae [1, 4]: 32 µg/mL (≈ 17.5 µM) | MIC, Methicillin-Resistant Staphylococcus aureus (MRSA) [2, 4]: 8 µg/mL (≈ 4.37 µM)
SMILES: C[C@H]1COc2c(F)c(F)cc3c(=O)c(C(=O)NCCC(=O)NCCCC[C@@H]4NC(=O)[C@H](Cc5c[nH]c6ccccc56)NC(=O)[C@H](Cc5c[nH]c6ccccc56)NC(=O)[C@H](Cc5c[nH]c6ccccc56)NC(=O)[C@H](Cc5c[nH]c6ccccc56)NC(=O)[C@H](CCCNC(=N)N)NC(=O)[C@H](CCCNC(=N)N)NC(=O)[C@H](CCCNC(=N)N)NC(=O)[C@H](CCCNC(=N)N)NC4=O)cn1c23 (cyclo(K([βAla-X1])RRRRWWWW))

MIC, Klebsiella pneumoniae [1, 4]: >128 µg/mL | MIC, Klebsiella pneumoniae [1, 6]: > 128 µg/mL | MIC, Methicillin-Resistant Staphylococcus aureus (MRSA) [2, 4]: >128 µg/mL | MIC, Methicillin-Resistant Staphylococcus aureus (MRSA) [2, 6]: > 128 µg/mL
SMILES: C[C@H]1COc2c(F)c(F)cc3c(=O)c(C(=O)O)cn1c23 [Levofloxacin-Q (2), Levofloxacin-Q acid]

MIC [1, 4]: 1 µg/mL (≈ 2.61 µM)
SMILES: C[C@@H](O)[C@H]1C(=O)N2C(C(=O)O)=C(S[C@@H]3CN[C@H](C(=O)N(C)C)C3)[C@H](C)[C@H]12 [Meropenem]

MIC, Klebsiella pneumoniae [1, 5]: 16 µg/mL (≈ 11.7 µM) | MIC, Methicillin-Resistant Staphylococcus aureus (MRSA) ([2]; Methicillin-Resistant (Los Angeles County (LAC) clone)): 4 µg/mL (≈ 2.92 µM)
SMILES: N=C(N)NCCC[C@@H]1NC(=O)[C@H](CCCNC(=N)N)NC(=O)[C@H](CCCNC(=N)N)NC(=O)[C@H](Cc2c[nH]c3ccccc23)NC(=O)[C@H](Cc2c[nH]c3ccccc23)NC(=O)[C@H](Cc2c[nH]c3ccccc23)NC(=O)[C@H](Cc2c[nH]c3ccccc23)NC(=O)[C@H](CCCNC(=N)N)NC1=O [[R4W4] (3)] (cyclo(RRRRWWWW))
MIC against MRSA [3]: 2.97 µg/mL
